Laboratory results published in patent US4216164A, “Ureide inhibitors of connective tissue destruction” (American Cyanamid Company, priority 1978, dated 1980).
Where “and” joins values, the source holds several entries; their conditions need not be identical. Identical values can stand only once. Counter-ions that a name gives are not always drawn.

Columns and labels:
[1] = test system: fibroblast collagenase and leukocyte neutral protease; assay: Enzymatic Degradation of Collagen of Human Gingiva; type: biochemical; settings: 37° C., 36 hours, control 102.3
Procedure: The test compounds are able to inhibit the degradation of collagen of gingival tissue. Dried pieces of human gingiva were incubated at 37° C. for 36 hours with fibroblast collagenase and leukocyte neutral protease in the presence of test compound (30 and 50 μg./ml.). Antibiotics were present to prevent bacterial growth. After incubation, the residual tissue was hydrolyzed in 6 N hydrochloric acid and the hydroxyproline content (collagen) was determined. When collagenase and neutral protease were added to human gingiva, approximately 100 μg of collagen/mg. dry tissue was digested. If the test compound was present, degradation of gingival collagen was inhibited.

[2] = biological target: T1, Gingival Crevicular Fluid Collagenase (Homo sapiens, UniProt P22894); assay: Crevicular Fluid Assay; type: biochemical; settings: diseased crevicular fluid + 30 mcg./ml. compound; control 66 ± 9; p<0.0005
T1 construct: from tissue; host or cells: gingival crevicular fluid of a volunteer with periodontal disease
T1 sequence (P22894 101-467): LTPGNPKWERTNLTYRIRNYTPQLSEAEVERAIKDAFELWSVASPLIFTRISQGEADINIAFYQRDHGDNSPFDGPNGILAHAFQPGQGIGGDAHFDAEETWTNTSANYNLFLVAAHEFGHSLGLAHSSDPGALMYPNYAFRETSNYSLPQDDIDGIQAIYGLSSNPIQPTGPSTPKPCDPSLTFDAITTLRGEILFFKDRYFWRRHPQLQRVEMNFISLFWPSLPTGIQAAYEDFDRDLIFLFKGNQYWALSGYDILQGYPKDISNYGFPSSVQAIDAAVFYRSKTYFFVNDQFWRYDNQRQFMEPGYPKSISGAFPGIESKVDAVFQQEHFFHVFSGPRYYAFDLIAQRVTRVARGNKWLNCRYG
Text: (§1) An active inhibitor would inhibit the degradation of the collagen fibril; (iii) Leukocyte Neutral Proteases Inhibitor Assay--This test measures the ability of neutral proteases derived from human leukocytes to degrade radiolabeled proteoglycans entrapped in polyacrylamide beads.
(ii) Crevicular Fluid Assay
Effect of Test Compounds on Gingival Crevicular Fluid Collagenase
Since studes by Golub, et al., Dental Res., 55, 1049 (1976) have shown that the crevicular collagenase plays a major role in the degradation of collagen in periodontal tissue, the effect of test compounds on collagen degradation by this system was examined. A volunteer with diagnosed periodontal disease was used. […] After one minute, the filter paper strip was removed and the volume of the gingival crevicular fluid was measured with the aid of the Periotron (Harco Electronics, Ltd., Winnipeg, Canada). The volume of the fluid gathered from the crevice by the filter paper strip is translated by a unique transducer onto a digital readout screen. […] After reading on the meter, 1 μl. of trypsin (1.5 μg./ml.) was added to the filter paper (to activate any latent collagenase present) and after five minutes at room temperature 1 μl. of aprotinin was added. […] The tubes were centrifuged as described above and a 200 μl. aliquot of the clear supernatant was assayed for radioactivity.

[3] = test system: neutral proteases derived from human leukocytes; assay: Leukocyte Neutral Proteases Inhibitor Assay; type: biochemical; settings: for Percent Inhibition of Neutral Protease Activity ^3 H: ^3 H label; for Percent Inhibition of Neutral Protease Activity ^35 S: ^35 S label
Procedure: as §1
(iii) Leukocyte Neutral Proteases Inhibitor Assay
Assays of Leukocyte Neutral Proteases Using ^3 H/^35 S Labeled Proteoglycans
This assay system contained (total volume of 1 ml.) 60 mM Tris-Cl, pH 7.4; 2.5 mM calcium chloride; 2.5 mM magnesium chloride; 2 mg. (dry weight) of polyacrylamide beads entrapped with labeled proteoglycans, and an aliquot of the leukocyte neutral protease preparation. The reaction mixture was incubated at 37° C. for 30 minutes in a shaking water bath. The reaction was terminated by the addition of 0.2 ml. of 5% HCl (v/v). After five minutes at room temperature, the mixture was centrifuged and the clear supernatant (0.6 ml.) was assayed for radioactivity. To determine the effect of the test compounds on degradation of proteoglycans by neutral proteases, various concentrations of the compounds were added to the reaction mixture. Appropriate blanks were included.

[4] = biological target: T2, human skin fibroblast collagenase (Homo sapiens, UniProt P03956); assay: Collagenase Assay, Test Code 006; type: biochemical; settings: test conc.: 30 μg./ml.
T2 construct: endogenous in cells; host or cells: human skin fibroblasts
T2 sequence (P03956 100-469): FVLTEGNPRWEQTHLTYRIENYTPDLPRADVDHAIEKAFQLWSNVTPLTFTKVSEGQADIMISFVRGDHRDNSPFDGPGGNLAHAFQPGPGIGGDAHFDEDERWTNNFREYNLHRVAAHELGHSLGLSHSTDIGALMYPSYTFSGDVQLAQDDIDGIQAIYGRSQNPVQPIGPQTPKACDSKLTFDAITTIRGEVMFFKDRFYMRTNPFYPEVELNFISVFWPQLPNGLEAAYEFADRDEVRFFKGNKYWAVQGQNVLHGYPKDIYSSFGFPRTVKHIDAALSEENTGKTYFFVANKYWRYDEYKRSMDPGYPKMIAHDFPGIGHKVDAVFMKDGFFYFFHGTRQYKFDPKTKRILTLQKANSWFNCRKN
Procedure: (i) Collagenase Assay--Test Code 006
In a typical assay (total volume of 0.45 ml.), 100 μl. of the activated enzyme was added to the ^14 C-labeled collagen fibrils (250 μl.) followed by 100 μl. of 50 mM cacodylate, pH 7.4, containing 5 mM calcium chloride. After incubation at 37° C. for 16 hours, the tubes were centrifuged in a Beckman microfuge for five minutes at full speed. An aliquot (200 μl.) of the supernatant, representing collagenase digestion products of the fibril, was assayed for radioactivity. The effect of the test compound on collagen degradation by collagenase was examined as follows:
Appropriate blanks and trypsin controls were run in parallel.

[5] = test system: corneal ulcerations; settings: alkali burned rabbit; directly applied to corneal ulcerations; cited from earlier work
[6] = test system: collagenase; settings: Thromb. Res. 1977, 10(4), 605-11; cited from earlier work
[7] = test system: corneal ulceration; settings: human; cited from earlier work

O=C(Nc1cccc(C(=O)Nc2ccc3cc(S(=O)(=O)O)cc(O)c3c2)c1)Nc1cccc(C(=O)Nc2ccc3cc(S(=O)(=O)O)cc(O)c3c2)c1 [6,6'-[Ureylenebis(3,1-phenylenecarbonylimino)]bis[4-hydroxy-] [6,6'-[Ureylenebis(m-phenylenecarbonylimino)]bis[4-hydroxy-2-naphthalenesulfonic acid]disodium salt]
mcg. of Collagen degraded per mg. of dry gingiva ([1]; neutral proteases plus 30 mcg./ml. compound): 60.4 mcg. per mg. | mcg. of Collagen degraded per mg. of dry gingiva ([1]; neutral proteases plus 50 mcg./ml. compound): 27.4 mcg. per mg. | cpm Collagen Degraded/Unit Periotron Reading [2]: 16 ± 6 cpm | Percent Inhibition of Neutral Protease Activity ^3 H ([3]; 0.5 mcg./ml.): 0% | Percent Inhibition of Neutral Protease Activity ^35 S ([3]; 0.5 mcg./ml.): 0% | Percent Inhibition of Neutral Protease Activity ^3 H ([3]; 1.0 mcg./ml.): 17% | Percent Inhibition of Neutral Protease Activity ^35 S ([3]; 1.0 mcg./ml.): 31% | Percent Inhibition of Neutral Protease Activity ^3 H ([3]; 2.0 mcg./ml.): 21% | Percent Inhibition of Neutral Protease Activity ^35 S ([3]; 2.0 mcg./ml.): 37% | Percent Inhibition of Neutral Protease Activity ^3 H ([3]; 5.0 mcg./ml.): 47% | Percent Inhibition of Neutral Protease Activity ^35 S ([3]; 5.0 mcg./ml.): 74% | Percent Inhibition of Neutral Protease Activity ^3 H ([3]; 10.0 mcg./ml.): 63% | Percent Inhibition of Neutral Protease Activity ^35 S ([3]; 10.0 mcg./ml.): 91%

O=C(Nc1cccc(C(=O)Nc2ccc3cc(S(=O)(=O)O)cc(O)c3c2)c1)Nc1cccc(C(=O)Nc2ccc3cc(S(=O)(=O)O)cc(O)c3c2)c1 [6,6'-[Ureylenebis(3,1-phenylenecarbonylimino)]bis[4-hydroxy-] [6,6'-[Ureylenebis(m-phenylenecarbonylimino)]bis[4-hydroxy-2-naphthalenesulfonic acid]tetrasodium salt]
% Inhibition of Collagenase [4]: 82% and 81%

O=C(Nc1cccc(C(=O)Nc2ccc3cc(S(=O)(=O)O)cc(O)c3c2)c1)Nc1cccc(C(=O)Nc2ccc3cc(S(=O)(=O)O)cc(O)c3c2)c1 [6,6'-[Ureylenebis(m-phenylenecarbonylimino)]bis[4-hydroxy-2-naphthalenesulfonic acid]disodium salt]
inhibition at 30 µg/mL [4]: 82%

O=C(Nc1ccc(C(=O)Nc2ccc3cc(S(=O)(=O)O)cc(O)c3c2)cc1)Nc1ccc(C(=O)Nc2ccc3cc(S(=O)(=O)O)cc(O)c3c2)cc1 [6,6'-[Ureylenebis(p-phenylenecarbonylimino)]bis[4-hydroxy-2-naphthalenesulfonic acid]tetrasodium salt]
inhibition at 30 µg/mL [4]: 95%

O=C([O-])CN(CCN(CC(=O)[O-])CC(=O)[O-])CC(=O)[O-].[Ca+2].[Ca+2] [Calcium ethylenediaminetetraacetate]
frequency of ulceration [5]: reduce the frequency of ulceration

Cc1ccc(C(=O)Nc2ccc(S(=O)(=O)O)c3cc(S(=O)(=O)O)cc(S(=O)(=O)O)c23)cc1NC(=O)c1cccc(NC(=O)Nc2cccc(C(=O)Nc3cc(C(=O)Nc4ccc(S(=O)(=O)O)c5cc(S(=O)(=O)O)cc(S(=O)(=O)O)c45)ccc3C)c2)c1 [Suramin]
inhibition of the activity of collagenase [6]: not inhibiting the action of collagenase

CC(=O)N[C@@H](CS)C(=O)O [acetylcysteine]
treatment of acute and chronic corneal ulceration [7]: effective | frequency of ulceration [5]: reduce the frequency of ulceration

N[C@@H](CS)C(=O)O [cysteine]
treatment of acute and chronic corneal ulceration [7]: effective

Cc1cc(-c2ccc(/N=N/c3c(S(=O)(=O)O)cc4cc(S(=O)(=O)O)cc(N)c4c3O)c(C)c2)ccc1/N=N/c1c(S(=O)(=O)O)cc2cc(S(=O)(=O)O)cc(N)c2c1O [trypan blue]
inhibition of the activity of collagenase [6]: inhibiting the activity of collagenase
